One data set deals with T1, human GLP-1 receptor (Homo sapiens, UniProt P43220).
T1 construct: expressed in transfected cells; host or cells: HEK-293
Description: cAMP response of HEK-293 cells stably expressing human GLP-1 receptor (HTRF). Format: cell-based. The following applies: Table 6; cAMP formation; read-out: EC50 hGLP-1R. Here is the method: (§1) cAMP content of cells was determined using a kit from Cisbio Corp. (cat. no. 62AM4PEC) based on HTRF (Homogenous Time Resolved Fluorescence). For preparation, cells were split into T175 culture flasks and grown overnight to near confluency in medium (DMEM/10% FBS). Medium was then removed and cells washed with PBS lacking calcium and magnesium, followed by proteinase treatment with accutase (Sigma-Aldrich cat. no. A6964). Detached cells were washed and resuspended in assay buffer (1×HBSS; 20 mM HEPES, 0.1% BSA, 2 mM IBMX) and cellular density determined. They were then diluted to 400000 cells/ml and 25 μl-aliquots dispensed into the wells of 96-well plates. For measurement, 25 μl of test compound in assay buffer was added to the wells, followed by incubation for 30 minutes at room temperature.
(§2) Potencies of peptidic compounds at the GLP-1, glucagon and GIP receptors were determined by exposing cells expressing human glucagon receptor (hGCG R), human GIP (hGIP R) and human GLP-1 receptor (hGLP-1 R) to the listed compounds at increasing concentrations and measuring the formed cAMP as described in Methods.

The nature of data set [1]: Solubility testing of exendin-4 derivatives (HPLC-UV of supernatant). Format: physicochemical. The protocol: Prior to the testing of solubility and stability of a peptide batch, its purity (HPLC-UV) was determined. […] Therefore, solutions from solid samples were prepared in different buffer systems with a concentration of 10 mg/mL compound based on the previously determined % purity. HPLC-UV was performed after 2 h of gentle agitation from the supernatant, which was obtained by 20 min of centrifugation at 4500 rpm. […] This analysis also served as starting point (t0) for the stability testing.

Data set [2] can be described thus: Stability testing in solution, 7 days at 40° C. (% remaining peptide, HPLC-UV). Format: physicochemical. The following applies: buffer, 168 h. Here is the method: After that time course, the sample was centrifuged for 20 min at 4500 rpm and 0.2 μL of the supernatant were analysed with HPLC-UV.
For determination of the amount of the remaining peptide, the peak areas of the target compound at t0 and t7 were compared, resulting in “% remaining peptide”, following the equation % remaining peptide=[(peak area peptide t7)×100]/peak area peptide t0.
The stability is expressed as “% remaining peptide”.

In another data set the target is T2, human GIP receptor (Homo sapiens, UniProt P48546).
T2 construct: expressed in transfected cells; host or cells: HEK-293
T2 sequence (P48546 22-466): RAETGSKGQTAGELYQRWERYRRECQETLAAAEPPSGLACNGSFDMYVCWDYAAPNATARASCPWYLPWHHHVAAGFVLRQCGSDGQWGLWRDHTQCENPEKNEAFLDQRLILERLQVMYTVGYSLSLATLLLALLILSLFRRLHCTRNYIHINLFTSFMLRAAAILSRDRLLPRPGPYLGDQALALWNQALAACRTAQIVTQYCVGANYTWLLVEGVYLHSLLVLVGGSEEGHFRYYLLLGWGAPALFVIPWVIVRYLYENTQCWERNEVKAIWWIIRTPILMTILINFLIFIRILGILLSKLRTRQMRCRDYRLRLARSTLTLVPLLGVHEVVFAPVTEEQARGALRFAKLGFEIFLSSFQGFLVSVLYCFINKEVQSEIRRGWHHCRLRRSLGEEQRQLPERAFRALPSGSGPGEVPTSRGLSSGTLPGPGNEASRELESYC
Description: cAMP response of HEK-293 cells stably expressing human GIP receptor (HTRF). Format: cell-based. The following applies: Table 6; cAMP formation; read-out: EC50 hGIP-R. Here is the method: as §1, §2
For orientation: TR-FRET usually uses a lanthanide donor and a delayed reading to cut background.

Another data set has as its target T3, human glucagon receptor (Homo sapiens, UniProt P47871).
T3 construct: expressed in transfected cells; host or cells: HEK-293
Description: cAMP response of HEK-293 cells stably expressing human glucagon receptor (HTRF). Format: cell-based. The following applies: Table 6; cAMP formation; read-out: EC50 hGlucagon-R. The protocol: as §1, §2

The nature of data set [3]: Pharmacokinetic testing in mice (plasma LC/MS). The following applies: mouse, in vivo, sc, 1 mg/kg. Here is the method:
Mice are dosed 1 mg/kg subcutaneously (s.c.). The mice are sacrificed and blood samples are collected after 0.25, 0.5, 1, 2, 4, 8, 16 and 24 hours post application. Plasma samples are analyzed after protein precipitation via liquid chromatography mass spectrometry (LC/MS). PK parameters and half-life were calculated using WinonLin Version 5.2.1 (non-compartment model).
Pharmacokinetic profiles were determined as described in Methods.

Three compounds from patent US9771406B2, “Peptidic dual GLP-1/glucagon receptor agonists derived from exendin-4” (priority 2014, dated 2017) can be followed below.

The pEC50 is −log10 of the EC50, conventionally taken in molar units. The term solubility denotes how much of the substance goes into solution per volume. A lower solubility goes with little dissolved substance. A word on the Cmax: it is the maximum level reached in the sampled fluid or tissue. One may read the half-life as the time in which the quantity being followed falls by half. Low values mean rapid decline, high ones slow decline.

Structures are written as SMILES. pEC50: −log10 of the molar value. Where only a bound is given, the exact number is not on record here.

T3 sequence (P47871 26-477): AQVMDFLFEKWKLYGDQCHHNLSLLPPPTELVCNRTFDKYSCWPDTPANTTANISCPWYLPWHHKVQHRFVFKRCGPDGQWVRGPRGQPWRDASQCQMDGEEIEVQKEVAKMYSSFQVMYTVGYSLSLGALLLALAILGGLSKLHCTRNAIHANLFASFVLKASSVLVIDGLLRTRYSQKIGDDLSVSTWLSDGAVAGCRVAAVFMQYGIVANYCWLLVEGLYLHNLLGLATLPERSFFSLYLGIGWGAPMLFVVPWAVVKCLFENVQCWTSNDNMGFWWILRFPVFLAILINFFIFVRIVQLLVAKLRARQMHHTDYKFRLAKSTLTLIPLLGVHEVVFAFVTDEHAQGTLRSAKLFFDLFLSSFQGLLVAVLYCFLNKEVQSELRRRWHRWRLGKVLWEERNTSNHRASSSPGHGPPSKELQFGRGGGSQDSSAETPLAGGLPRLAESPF
T1 sequence (P43220 24-463): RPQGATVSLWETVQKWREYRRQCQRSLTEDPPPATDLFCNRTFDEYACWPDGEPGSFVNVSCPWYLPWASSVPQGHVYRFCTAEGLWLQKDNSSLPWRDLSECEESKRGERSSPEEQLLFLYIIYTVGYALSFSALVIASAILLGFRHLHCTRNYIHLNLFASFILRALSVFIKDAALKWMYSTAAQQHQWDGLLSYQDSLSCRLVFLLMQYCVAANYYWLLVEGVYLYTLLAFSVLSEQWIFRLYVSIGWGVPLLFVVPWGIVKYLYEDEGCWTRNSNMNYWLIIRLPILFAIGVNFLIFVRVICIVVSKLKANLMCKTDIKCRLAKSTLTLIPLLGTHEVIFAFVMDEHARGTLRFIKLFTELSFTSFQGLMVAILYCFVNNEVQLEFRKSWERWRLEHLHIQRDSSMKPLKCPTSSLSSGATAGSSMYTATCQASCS

Consider `CCCCCCCCCCCCCCCC(=O)N[C@@H](CCC(=O)NCCCC[C@H](NC(=O)[C@H](CCC(N)=O)NC(=O)[C@H](CCCCN)NC(=O)[C@H](CO)NC(=O)[C@H](CC(C)C)NC(=O)[C@H](CC(=O)O)NC(=O)[C@H](CO)NC(=O)[C@@H](NC(=O)[C@H](Cc1ccccc1)NC(=O)[C@@H](NC(=O)CNC(=O)[C@H](Cc1c[nH]cn1)NC(=O)C(C)(C)NC(=O)[C@@H](N)Cc1c[nH]cn1)[C@@H](C)O)[C@@H](C)O)C(=O)N[C@@H](CCC(=O)O)C(=O)N[C@@H](CCC(=O)O)C(=O)N[C@@H](CCC(=O)O)C(=O)N[C@@H](C)C(=O)N[C@H](C(=O)N[C@@H](CCCNC(=N)N)C(=O)N[C@@H](CC(C)C)C(=O)N[C@@H](Cc1ccccc1)C(=O)N[C@H](C(=O)N[C@@H](CCC(=O)O)C(=O)N[C@@H](Cc1c[nH]c2ccccc12)C(=O)N[C@@H](CC(C)C)C(=O)N[C@@H](CCCCN)C(=O)N[C@@H](C)C(=O)NCC(=O)NCC(=O)N1CCC[C@H]1C(=O)N[C@@H](CO)C(=O)N[C@@H](CO)C(=O)NCC(=O)N[C@@H](C)C(=O)N1CCC[C@H]1C(=O)N1CCC[C@H]1C(=O)N1CCC[C@H]1C(=O)N[C@@H](CO)C(N)=O)[C@@H](C)CC)C(C)C)C(=O)O` [compound 12], for which the pEC50 at human GLP-1 receptor is 11.48; on human GIP receptor, 11.06; at human glucagon receptor, 10.89. Further, the solubility at 2 h in data set [1] (pH 4.5) and in data set [1] (pH 7.4) was over 5000 µg/mL each time. The “Stability (pH 4.5), % remaining peptide” value in data set [2] worked out at 96.7%. Also, in data set [2], the “Stability (pH 7.4), % remaining peptide” value amounted to 92.0%.
With `CCCCCCCCCCCCCCCC(=O)N[C@@H](CCC(=O)N[C@@H](CCC(=O)NCCCC[C@H](NC(=O)[C@H](CCC(N)=O)NC(=O)[C@H](CCCCN)NC(=O)[C@H](CO)NC(=O)[C@H](CC(C)C)NC(=O)[C@H](CC(=O)O)NC(=O)[C@H](CO)NC(=O)[C@@H](NC(=O)[C@H](Cc1ccccc1)NC(=O)[C@@H](NC(=O)CNC(=O)[C@H](Cc1c[nH]cn1)NC(=O)C(C)(C)NC(=O)[C@@H](N)Cc1c[nH]cn1)[C@@H](C)O)[C@@H](C)O)C(=O)N[C@@H](CCC(=O)O)C(=O)N[C@@H](CCC(=O)O)C(=O)N[C@@H](CCC(=O)O)C(=O)N[C@@H](C)C(=O)N[C@H](C(=O)N[C@@H](CCCNC(=N)N)C(=O)N[C@@H](CC(C)C)C(=O)N[C@@H](Cc1ccccc1)C(=O)N[C@H](C(=O)N[C@@H](CCC(=O)O)C(=O)N[C@@H](Cc1c[nH]c2ccccc12)C(=O)N[C@@H](CC(C)C)C(=O)N[C@@H](CCCCN)C(=O)N[C@@H](C)C(=O)NCC(=O)NCC(=O)N1CCC[C@H]1C(=O)N[C@@H](CO)C(=O)N[C@@H](CO)C(=O)NCC(=O)N[C@@H](C)C(=O)N1CCC[C@H]1C(=O)N1CCC[C@H]1C(=O)N1CCC[C@H]1C(=O)N[C@@H](CO)C(N)=O)[C@@H](C)CC)C(C)C)C(=O)O)C(=O)O` [compound 11], the solubility at 2 h in data set [1] (pH 4.5) and in data set [1] (pH 7.4) was over 5000 µg/mL in each case. In addition, the “Stability (pH 4.5), % remaining peptide” value in data set [2] worked out at 97.5%. For the same compound, the “Stability (pH 7.4), % remaining peptide” value in data set [2] is 95.8%. Further, the negative-log EC50 (pEC50) on human GIP receptor is 11.10; on human glucagon receptor, 11.05. The same compound displayed a Cmax in data set [3] of 3510 ng/mL. In data set [3], the half-life was 3.3 h.
As to `CCCCCCCCCCCCCCCCCC(=O)N[C@@H](CCC(=O)NCCCC[C@H](NC(=O)[C@H](CCC(N)=O)NC(=O)[C@H](CCCCN)NC(=O)[C@H](CO)NC(=O)[C@H](CC(C)C)NC(=O)[C@H](CC(=O)O)NC(=O)[C@H](CO)NC(=O)[C@@H](NC(=O)[C@H](Cc1ccccc1)NC(=O)[C@@H](NC(=O)CNC(=O)[C@H](Cc1c[nH]cn1)NC(=O)[C@@H](CO)NC(=O)[C@@H](N)Cc1c[nH]cn1)[C@@H](C)O)[C@@H](C)O)C(=O)N[C@@H](CCC(=O)O)C(=O)N[C@@H](CCC(=O)O)C(=O)N[C@@H](CCC(=O)O)C(=O)N[C@@H](C)C(=O)N[C@H](C(=O)N[C@@H](CCCNC(=N)N)C(=O)N[C@@H](CC(C)C)C(=O)N[C@@H](Cc1ccccc1)C(=O)N[C@H](C(=O)N[C@@H](CCC(=O)O)C(=O)N[C@@H](Cc1c[nH]c2ccccc12)C(=O)N[C@@H](CC(C)C)C(=O)N[C@@H](CCCCN)C(=O)N[C@@H](C)C(=O)NCC(=O)NCC(=O)N1CCC[C@H]1C(=O)N[C@@H](CO)C(=O)N[C@@H](CO)C(=O)NCC(=O)N[C@@H](C)C(=O)N1CCC[C@H]1C(=O)N1CCC[C@H]1C(=O)N1CCC[C@H]1C(=O)N[C@@H](CO)C(N)=O)[C@@H](C)CC)C(C)C)C(=O)O` [compound 25], the figures for the pEC50 at human GLP-1 receptor, at human GIP receptor and at human glucagon receptor were 11.09, 9.39 and 10.40, respectively.
